Experimental data from ChEMBL document CHEMBL3046344, “Phytochemical based strategies for nematode control” (2002).
Values after ≈ are worked out from the molar mass of the structure shown. Numbered stars: 1 amine (or outer) side, 2 acyl side, 3 side chain; on linkers, the order of the positions; unused ones are H or OH. Bridge positions count the residues as written; N and C are the ends. Square brackets hold non-standard residues; d marks the D form. Peptide text beside a SMILES is read from it. NMeW = CN[C@@H](Cc1c[nH]c2ccccc12)C(=O)O; X1 = CC(C)[C@@H](C(=O)[*:1])N(C)O[*:2]; NMeI = CC[C@H](C)[C@H](NC)C(=O)O; NMeV = CN[C@H](C(=O)O)C(C)C; Sar = CNCC(=O)O

Tests used:
Type in all cases: functional
Caenorhabditis elegans [1] = experiment: Nematocidal activity against Caenorhabditis elegans assessed as mortality; settings: for LC50 / minimal effective concentration: Caenorhabditis elegans; for minimal effective concentration: read-out: MEC
Heterodera schachtii = experiment: Nematocidal activity against Heterodera schachtii; settings: read-out: LD50 (the source's name)
Radopholus similis = experiment: Nematocidal activity against Radopholus similis; settings: read-out: LD50 (the source's name)
Pratylenchus penetrans [2] = experiment: Nematocidal activity against Pratylenchus penetrans; settings: read-out: LD50 (the source's name)
Meloidogyne incognita [3] = experiment: Nematocidal activity against Meloidogyne incognita (root-knot nematode); settings: read-out: LD50 (the source's name)
Meloidogyne incognita [4] = experiment: Nematocidal activity against Meloidogyne incognita (root-knot nematode) assessed as inhibition of penetration in tomato root at 25 ug/ml; set-up: scale not given: the % may be the effect or the level left
Panagrellus redivivus [5] = experiment: Nematocidal activity against Panagrellus redivivus; settings: read-out: ED50 (the source's name)
Meloidogyne incognita [6] = experiment: Nematocidal activity against Meloidogyne incognita (root-knot nematode) assessed as mortality at 10 ug/ml
Pratylenchus penetrans [7] = experiment: Nematocidal activity against Pratylenchus penetrans assessed as motility and viability
Meloidogyne incognita [8] = experiment: Nematocidal activity against Meloidogyne incognita (root-knot nematode) assessed as motility and viability
Meloidogyne incognita [9] = experiment: Nematocidal activity against Meloidogyne incognita (root-knot nematode) in tomato assessed as reduction of infection at 50 ug/ml; set-up: scale not given: the % may be the effect or the level left
Ditylenchus dipsaci = experiment: Nematocidal activity against Ditylenchus dipsaci assessed as motility; settings: read-out: ED50 (the source's name)
Caenorhabditis elegans [10] = experiment: Nematocidal activity against Caenorhabditis elegans assessed as mortality at 50 ug/ml
Panagrellus redivivus [11] = experiment: Nematocidal activity against Panagrellus redivivus assessed as mortality at 12.5 ug/ml
[12] = read-out: LD50 (the source's name)

COc1cc(O)cc(/C=C/c2ccccc2)c1 [PINOSYLVIN METHYL ETHER]
LC50 (Caenorhabditis elegans [1]; [12]): 4 µg/mL (≈ 17.7 µM)

C=Cc1ccc(O)cc1 [4-VINYLPHENOL]
minimal effective concentration (Caenorhabditis elegans [1]): 300 µg/mL

CC[C@H](C)[C@H]1C(=O)NCC(=O)N(C)[C@@H](Cc2c[nH]c3ccccc23)C(=O)N[C@@H](C(C)C)C(=O)N(C)[C@@H]([C@@H](C)CC)C(=O)N(C)[C@@H](C(C)C)C(=O)ON(C)[C@@H](C(C)C)C(=O)N(C)CC(=O)N(C)[C@@H](C(C)C)C(=O)N(C)[C@@H]([C@@H](C)CC)C(=O)N(C)CC(=O)N[C@@H](C(C)C)C(=O)N1C [OMPHALOTIN A] ([Sar][NMeV][NMeI][Sar]V[NMeI]G[NMeW]V[NMeI][NMeV]; linker N-C via X1)
LC50 (Heterodera schachtii): 30 µg/mL (≈ 22.5 µM) | LC50 (Radopholus similis): > 75 µg/mL | LC50 (Pratylenchus penetrans [2]): 25 µg/mL (≈ 18.7 µM) | LC50 (Meloidogyne incognita [3]): 0.75 µg/mL (≈ 0.562 µM)

C=CCS[S+]([O-])CC=C (centres undefined) [ALLICIN]
Activity (Meloidogyne incognita [4]): 50%

COc1c(-c2ccco2)coc(=O)c1C [CLADOBOTRIN]
LC50 (Meloidogyne incognita [3]): 100 µg/mL (≈ 485 µM)

C[C@H]1CC[C@@H]2[C@@H](C)[C@H]3[C@H](C[C@H]4[C@@H]5CC=C6C[C@@H](O[C@@H]7O[C@H](CO)[C@H](O[C@@H]8O[C@@H](C)[C@H](O)[C@@H](O)[C@H]8O)[C@H](O)[C@@H]7O[C@@H]7O[C@@H](C)[C@@H](O)[C@@H](O)[C@H]7O)CC[C@]6(C)[C@H]5CC[C@]34C)N2C1 [ALPHA-CHACONINE]
EC50 (Panagrellus redivivus [5]): 85 µg/mL (≈ 99.8 µM)

C=CCc1ccc(O)cc1 [CHAVICOL]
minimal effective concentration (Caenorhabditis elegans [1]): 300 µg/mL

COc1cc(CC(C)C(C)Cc2ccc(O)c(OC)c2)ccc1O (centres undefined) [DIHYDROGUAIARETIC ACID]
LC50 (Caenorhabditis elegans [1]; [12]): 10 µg/mL (≈ 30.3 µM)

Oc1ccccc1O [CATECHOL]
Activity (Caenorhabditis elegans [1]): 100%

CCCCC/C=C\C/C=C\CCCCCCCC(=O)O [LINOLEIC ACID]
LC50 (Caenorhabditis elegans [1]; [12]): 5 µg/mL (≈ 17.8 µM) | LC50 (Meloidogyne incognita [3]): 50 µg/mL (≈ 178 µM)

CCCCCCCC/C=C\C(=O)O [2-UNDECYLENIC ACID]
Activity (Meloidogyne incognita [6]): 70%

C=C/C=C/C#CC1=CC=C(C#CC)SS1 [THIARUBRINE C]
LC50 (Pratylenchus penetrans [7]): 23.5 mg/mL (≈ 102000 µM) | LC50 (Meloidogyne incognita [8]): 12.4 mg/mL (≈ 53800 µM) | Activity (Meloidogyne incognita [9]): 95%

C=CCc1ccc(O)c(O)c1 [HYDROXYCHAVICOL]
minimal effective concentration (Caenorhabditis elegans [1]): 300 µg/mL

CC(=O)C#Cc1ccccc1 [4-PHENYL-3-BUTYN-2-ONE]
LC50 (Caenorhabditis elegans [1]; read-out: LC50): 0.3 µg/mL (≈ 2.08 µM)

C=C(C)[C@@H]1CCC2=C[C@@H](O)[C@H](O)[C@@H](C)C2C1 (some centres undefined) [RISHITIN]
EC50 (Ditylenchus dipsaci): 100 µg/mL (≈ 450 µM)

C[C@H]1CC[C@]2(NC1)O[C@H]1C[C@H]3[C@@H]4CC[C@H]5C[C@@H](O[C@@H]6O[C@H](CO)[C@H](O[C@@H]7O[C@H](CO)[C@@H](O)[C@H](O[C@@H]8OC[C@@H](O)[C@H](O)[C@H]8O)[C@H]7O[C@@H]7O[C@H](CO)[C@@H](O)[C@H](O)[C@H]7O)[C@H](O)[C@H]6O)CC[C@]5(C)[C@H]4CC[C@]3(C)[C@H]1[C@@H]2C [TOMATINE]
EC50 (Panagrellus redivivus [5]): 50 µg/mL (≈ 48.3 µM)

CCCCC1OC(=O)C2=C1CCC=C2 (centres undefined) [3-N-BUTYL-4,5-DIHYDROPHTHALIDE]
Activity (Caenorhabditis elegans [10]): 100% | Activity (Panagrellus redivivus [11]): 100%
